According to patent US4582821A, “Inhibition of cyclic nucleotide independent protein kinases” (E. I. Du Pont de Nemours and Company, priority 1983, dated 1986):
Peptide text beside a SMILES is read from it. * marks the point of attachment. Cbz = O=C(OCc1ccccc1)*; CH2Cl = ClC*

How the values were obtained:
[1] = system: A-431 plasma membrane extracts (EGF-mediated protein phosphorylation); test: Protein phosphorylation in solubilized A-431 plasma membrane extracts, with or without EGF; assay type: biochemical, human; details: 477 nmol/mg protein; for EGF Added (pmol 32P incorporated/min/mg protein): control 96.2; for No EGF Added (pmol 32P incorporated/min/mg protein): control 21.6
Procedure: The capacity of certain peptide halomethyl ketones to inhibit protein phosphorylation is illustrated by Examples 1-8, below, in which solubilized plasma membranes prepared from A-431 human epidermoid carcinoma cells were incubated with [γ-^32 P] ATP in the presence of EGF.
A-431 human epidermoid carcinoma cells were grown in Dulbecco's modified Eagle's medium containing 5% fetal calf serum. Plasma membranes were isolated by a method substantially similar to that described by Thom et al., Biochem J. 168:187 (1977), and kept at -70°. Solubilization of plasma membranes was performed substantially as described by Cohen et al., J. Biol. Chem. 255:4834 (1980). In this procedure, 7.5 mg/mL protein was solubilized with 5% Triton X-100 (octylphenol), 10% glycerol, and 20 mM Hepes buffer (N-2-hydroxyethylpiperazine-N^1 -2-ethanesulfonic acid), pH 7.4. This mixture was incubated for 20 minutes at about 23°, followed by centrifugation at 100,000 xg for 60 minutes.
(§1) Protein phosphorylation assays were conducted substantially as described by Carpenter et al., J. Biol. Chem. 254:4884 (1979). Each assay mixture contained, in a final volume of 70 μL: 20 mM Hepes, pH 7.4, 0.01% bovine serum albumin (BSA), 15-150 μg protein in Triton extract, 100 ng EGF, 1 mM MnCl2 and 10-20 μM [γ-^32 P] ATP (2-4 μCi). Peptide halomethyl ketones were added as solutions in ethanol; an equivalent volume of ethanol was added to controls. Assay mixtures were incubated at about 23° for ten minutes, with or without added EGF. Mixtures were then held at 0° for ten minutes before initiation of phosphorylation by addition of 15 μM γ-^32 P) ATP (2 μCi). Reactions were terminated after 3 minutes at 0° by applying an aliquot of the assay mixture to a Whatman 3MM filter paper (2×2 cm), which was then suspended in ice-cold 10% trichloroacetic acid containing 10 mM pyrophosphate. This suspension was gently shaken for a period of 1 hour, during which the trichloroacetic acid/pyrophosphate mixture was changed three times. Finally, the filter papers were dried and radioactivity measured by scintillation counting.

[2] = biological target: T1, A-431 cell EGF receptor (Homo sapiens, UniProt P00533); test: Protein phosphorylation of A-431 cell membrane EGF receptors (intact membranes, EGF present); assay type: biochemical; details: 600 nmoles/mg protein, intact A-431 membranes
T1 construct: intact A-431 cell membranes were employed, rather than solubilized extracts; endogenous in cells; host or cells: A-431 human epidermoid carcinoma cells (plasma membranes)
T1 sequence (P00533 25-1210): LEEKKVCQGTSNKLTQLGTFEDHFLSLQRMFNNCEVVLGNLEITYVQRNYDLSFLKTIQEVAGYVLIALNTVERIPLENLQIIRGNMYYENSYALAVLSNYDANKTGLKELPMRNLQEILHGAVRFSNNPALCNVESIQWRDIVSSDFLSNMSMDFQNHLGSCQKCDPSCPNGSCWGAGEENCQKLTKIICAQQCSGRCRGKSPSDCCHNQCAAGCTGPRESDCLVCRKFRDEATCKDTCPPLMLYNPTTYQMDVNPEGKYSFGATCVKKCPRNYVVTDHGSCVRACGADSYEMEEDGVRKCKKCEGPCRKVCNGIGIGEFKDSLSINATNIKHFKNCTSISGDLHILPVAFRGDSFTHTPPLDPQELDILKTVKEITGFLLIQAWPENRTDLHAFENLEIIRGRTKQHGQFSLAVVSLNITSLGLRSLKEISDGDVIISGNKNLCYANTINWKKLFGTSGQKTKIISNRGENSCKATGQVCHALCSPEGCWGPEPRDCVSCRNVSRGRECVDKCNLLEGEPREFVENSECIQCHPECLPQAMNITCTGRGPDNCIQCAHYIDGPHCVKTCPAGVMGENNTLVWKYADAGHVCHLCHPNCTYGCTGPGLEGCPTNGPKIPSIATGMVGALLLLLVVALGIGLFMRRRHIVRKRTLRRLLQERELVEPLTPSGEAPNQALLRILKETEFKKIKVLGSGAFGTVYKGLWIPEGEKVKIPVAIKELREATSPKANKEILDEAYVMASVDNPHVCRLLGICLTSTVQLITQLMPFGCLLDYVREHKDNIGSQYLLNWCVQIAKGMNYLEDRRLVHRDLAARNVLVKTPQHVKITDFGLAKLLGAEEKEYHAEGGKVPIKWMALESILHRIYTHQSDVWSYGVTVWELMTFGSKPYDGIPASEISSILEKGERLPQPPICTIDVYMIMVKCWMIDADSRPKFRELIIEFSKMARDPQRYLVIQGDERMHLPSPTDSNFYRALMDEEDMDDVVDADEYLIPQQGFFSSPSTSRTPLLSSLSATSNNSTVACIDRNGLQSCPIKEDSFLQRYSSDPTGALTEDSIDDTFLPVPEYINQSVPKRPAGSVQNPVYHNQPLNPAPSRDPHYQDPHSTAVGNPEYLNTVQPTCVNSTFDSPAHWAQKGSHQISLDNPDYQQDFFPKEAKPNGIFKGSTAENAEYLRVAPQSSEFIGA
Procedure: as §1
Assays were conducted substantially as described above, except intact A-431 cell membranes were employed, rather than solubilized extracts, and assay mixtures contained 1 mM ouabain. In these Examples, reactions were permitted to proceed for 6 minutes. This technique is substantially similar to that disclosed by Navarro et al., Biochemistry, 21:6138 (1982).

[3] = system: lymphoma cell line MOLT-4; test: Tumor cell line growth inhibition, MOLT-4; assay type: cell-based
Procedure: (§2) In this series of experiments, the tumor cell growth inhibitory capacity of various peptide halomethyl ketones was tested against lymphoma cell lines YAC-1 and MOLT-4, and against an erythroleukemia cell line, K-562. The lymphoma cell line YAC-1 is described by Kiessling, et al., Eur. J. Immunol. 5:112 (1975), and MOLT-4 is described by Minowada, et al., J. Natl. Cancer Inst. 49:891 (1972) and Nilsson, et al., Int. J. Cancer 15:321 (1975). The erythroleukemia cell line K-562 is described by Lozzio, et al., Leuk. Res. 3:363 (1979). In these experiments, cells were grown on standard media as 10 mL suspension cultures. Initial cell density was 10^5 cells/mL. At day 0, test compounds were introduced in ethanol; control cultures received an equal volume of ethanol. Cells were counted at the times indicated.

[4] = system: erythroleukemia cell line K-562; test: Tumor cell line growth inhibition, K-562; assay type: cell-based
Procedure: as §2

[5] = system: lymphoma cell line YAC-1; test: Tumor cell line growth inhibition, YAC-1; assay type: cell-based
Procedure: as §2

[6] = biological target: T2, p130^fps (UniProt P00530+P03323); test: Casein phosphorylation by p130fps immunoprecipitates; assay type: biochemical, Fujinami sarcoma virus (FSV); details: casein-phosphorylating activity of p130fps; concentration not given
T2 construct: anti-gag serum and Staphylococcus protein A suspension (for FSV-transformed cells); viral gag-derived N-terminal portion (natural gag-fps fusion); expressed in transfected cells; immune complex with anti-gag serum and Staphylococcus protein A
Procedure: In a related experiment, the capacity of Boc-LeuCH2 Br to inhibit phosphorylation of casein by p130^fps was determined. These tests were conducted substantially as described above, except 1 mg/mL casein was added to assay mixtures as a substrate, and reactions were terminated by addition of 2.5 mM unlabeled ATP and immediate cooling to 0°. Phosphorylated casein was separated from immunoprecipitate suspensions by centrifugation at 3,000 xg for 3 minutes. The resulting pellets were resuspended in 70 μL of 10 mM Hepes, pH 7.5, and 20 μL aliquots were pipetted onto filter paper squares as previously described. […]

Structure (SMILES)	% inhibition [2] [%]	% Growth Relative to Control Cultures ([3]; 0.4 μg/mL, day 1) [%]	% Growth Relative to Control Cultures ([3]; 0.4 μg/mL, day 2) [%]	% Growth Relative to Control Cultures ([3]; 2.0 μg/mL, day 1) [%]	% Growth Relative to Control Cultures ([3]; 2.0 μg/mL, day 2) [%]	% Growth Relative to Control Cultures ([3]; 2.0 μg/mL, day 3) [%]	% Growth Relative to Control Cultures ([3]; 2.0 μg/mL, day 4) [%]	% Growth Relative to Control Cultures ([3]; 10. μg/mL, day 2) [%]	% Growth Relative to Control Cultures ([3]; 10. μg/mL, day 3) [%]	% Growth Relative to Control Cultures ([3]; 10. μg/mL, day 4) [%]	% Growth Relative to Control Cultures ([3]; 10. μg/mL, day 7) [%]	% Growth Relative to Control Cultures ([4]; 2.0 μg/mL, day 1) [%]	% Growth Relative to Control Cultures ([4]; 2.0 μg/mL, day 2) [%]	% Growth Relative to Control Cultures ([4]; 2.0 μg/mL, day 3) [%]	% Growth Relative to Control Cultures ([4]; 2.0 μg/mL, day 4) [%]	% Growth Relative to Control Cultures ([4]; 10. μg/mL, day 1) [%]	% Growth Relative to Control Cultures ([4]; 10. μg/mL, day 2) [%]	% Growth Relative to Control Cultures ([4]; 10. μg/mL, day 3) [%]	% Growth Relative to Control Cultures ([4]; 10. μg/mL, day 4) [%]	% Growth Relative to Control Cultures ([4]; 10. μg/mL, day 7) [%]	further results
CC(C)C[C@H](NC(=O)OC(C)(C)C)C(=O)CCl [Boc-LeuCH2 Cl]	7	73	86	47	28	10	11	38	3	3	4	17	31	8	15	8	17	3	6	3	% inhibition, EGF Added [1]: 28%; EGF Added (pmol 32P incorporated/min/mg protein) [1]: 69.0 pmol^32 P incorporated/min/mg; % inhibition, No EGF Added [1]: 48%; No EGF Added (pmol 32P incorporated/min/mg protein) [1]: 11.3 pmol^32 P incorporated/min/mg; % Growth Relative to Control Cultures ([3]; 0.4 μg/mL, day 3): 73%; % Growth Relative to Control Cultures ([3]; 0.4 μg/mL, day 7): 86%; % Growth Relative to Control Cultures ([3]; 2.0 μg/mL, day 7): 63%; % Growth Relative to Control Cultures ([4]; 0.4 μg/mL, day 1): 47%; % Growth Relative to Control Cultures ([4]; 0.4 μg/mL, day 3): 53%; % Growth Relative to Control Cultures ([4]; 2.0 μg/mL, day 7): 37%
CC(C)(C)OC(=O)N[C@@H](Cc1ccc(O)cc1)C(=O)CCl [Boc-TyrCH2 Cl]	34	80		56	31	17	16	19	8	3	0	81	23	15	19	64	7	2	2	0	% inhibition, EGF Added [1]: 45%; EGF Added (pmol 32P incorporated/min/mg protein) [1]: 53.0 pmol^32 P incorporated/min/mg; % inhibition, No EGF Added [1]: 64%; No EGF Added (pmol 32P incorporated/min/mg protein) [1]: 7.8 pmol^32 P incorporated/min/mg; % Growth Relative to Control Cultures ([3]; 0.4 μg/mL, day 3): 85%; % Growth Relative to Control Cultures ([3]; 0.4 μg/mL, day 4): 69%; % Growth Relative to Control Cultures ([3]; 2.0 μg/mL, day 7): 31%; % Growth Relative to Control Cultures ([3]; 10. μg/mL, day 1): 39%; % Growth Relative to Control Cultures ([4]; 2.0 μg/mL, day 7): 44%
C[C@H](NC(=O)CNC(=O)[C@H](Cc1ccccc1)NC(=O)OCc1ccccc1)C(=O)N[C@@H](Cc1ccc(O)cc1)C(=O)CCl [Z--Phe-Gly-Ala-TyrCH2 Cl, Z-Phe-Gly-Ala-TyrCH2 Cl] (Cbz-FGAY-CH2Cl)	67																				
CC(C)C[C@H](NC(=O)[C@H](CO)NC(=O)CNC(=O)[C@H](Cc1ccccc1)NC(=O)OCc1ccccc1)C(=O)CCl [Z--Phe-Gly-Ser-LeuCH2 Cl, Z-Phe-Gly-Ser-LeuCH2 Cl] (Cbz-FGSL-CH2Cl)	54	77	40	42	27	87	74	17	76	29	49	66	13	38	40		14	17	20	65	% Growth Relative to Control Cultures ([5]; 0.4 μg/mL, day 2): 63%; % Growth Relative to Control Cultures ([5]; 0.4 μg/mL, day 3): 68%; % Growth Relative to Control Cultures ([5]; 0.4 μg/mL, day 4): 74%; % Growth Relative to Control Cultures ([5]; 0.4 μg/mL, day 7): 61%; % Growth Relative to Control Cultures ([5]; 2.0 μg/mL, day 2): 80%; % Growth Relative to Control Cultures ([5]; 2.0 μg/mL, day 3): 60%; % Growth Relative to Control Cultures ([5]; 2.0 μg/mL, day 4): 66%; % Growth Relative to Control Cultures ([5]; 2.0 μg/mL, day 7): 75%; % Growth Relative to Control Cultures ([5]; 10. μg/mL, day 1): 62%; % Growth Relative to Control Cultures ([5]; 10. μg/mL, day 2): 40%; % Growth Relative to Control Cultures ([5]; 10. μg/mL, day 4): 40%; % Growth Relative to Control Cultures ([5]; 10. μg/mL, day 7): 64%; % Growth Relative to Control Cultures ([3]; 10. μg/mL, day 1): 38%; % Growth Relative to Control Cultures ([4]; 0.4 μg/mL, day 2): 28%; % Growth Relative to Control Cultures ([4]; 0.4 μg/mL, day 3): 27%; % Growth Relative to Control Cultures ([4]; 0.4 μg/mL, day 4): 49%; % Growth Relative to Control Cultures ([4]; 0.4 μg/mL, day 7): 81%
CC(C)C[C@H](NC(=O)[C@H](C)NC(=O)[C@H](Cc1ccccc1)NC(=O)[C@H](Cc1ccccc1)NC(=O)OCc1ccccc1)C(=O)CCl [Z--Phe-Phe-Ala-LeuCH2 Cl] (Cbz-FFAL-CH2Cl)																					Percent Inhibition [6]: 11%
CC(C)CC(NC(=O)C(C)NC(=O)C1CCCN1C(=O)C(Cc1ccccc1)NC(=O)OCc1ccccc1)C(=O)CCl (stereo not drawn) [Z--Phe-Pro-Ala-LeuCH2 Cl] (Cbz-FPAL-CH2Cl; configuration not given here)																					Percent Inhibition [6]: 16%
CC(C)C[C@H](NC(=O)[C@H](C)NC(=O)[C@H](CO)NC(=O)[C@H](Cc1ccccc1)NC(=O)OCc1ccccc1)C(=O)CCl [Z--Phe-Ser-Ala-LeuCH2 Cl, Z-Phe-Ser-Ala-LeuCH2 Cl] (Cbz-FSAL-CH2Cl)	44		80		85			16	4	2	11		72			44	4	2	4	7	% Growth Relative to Control Cultures ([5]; 0.4 μg/mL, day 1): 58%; % Growth Relative to Control Cultures ([5]; 0.4 μg/mL, day 2): 49%; % Growth Relative to Control Cultures ([5]; 2.0 μg/mL, day 1): 53%; % Growth Relative to Control Cultures ([5]; 2.0 μg/mL, day 2): 53%; % Growth Relative to Control Cultures ([5]; 2.0 μg/mL, day 7): 76%; % Growth Relative to Control Cultures ([5]; 10. μg/mL, day 1): 63%; % Growth Relative to Control Cultures ([5]; 10. μg/mL, day 2): 21%; % Growth Relative to Control Cultures ([5]; 10. μg/mL, day 3): 16%; % Growth Relative to Control Cultures ([5]; 10. μg/mL, day 4): 16%; % Growth Relative to Control Cultures ([5]; 10. μg/mL, day 7): 17%; % Growth Relative to Control Cultures ([3]; 10. μg/mL, day 1): 64%; % Growth Relative to Control Cultures ([4]; 0.4 μg/mL, day 1): 82%; % Growth Relative to Control Cultures ([4]; 0.4 μg/mL, day 2): 66%
